Results from paper PMC4460250, “Systems Pharmacology Dissecting Holistic Medicine for Treatment of Complex Diseases: An Example Using Cardiocerebrovascular Diseases Treated by TCM” (Evidence-based Complementary and Alternative Medicine : eCAM, 2015).

What was measured:
[1] = in vivo
[2] = in vivo; cited from earlier work

## OC[C@@H](O)COc1ccc(Cl)cc1 [Chlorphenesin(R)]
[1]
  Class(High: HIA value ≥0.7; Low: HIA value < 0.7): High (key: High: HIA value ≥0.7; Low: HIA value < 0.7)
[2]
  HIA(Human Intestinal Absorption): 1

## OC[C@H](O)COc1ccc(Cl)cc1 [Chlorphenesin(S)]
[1]
  Class(High: HIA value ≥0.7; Low: HIA value < 0.7): High (key: High: HIA value ≥0.7; Low: HIA value < 0.7)
[2]
  HIA(Human Intestinal Absorption): 1

## NS(=O)(=O)c1cc([C@]2(O)NC(=O)c3ccccc32)ccc1Cl [Chlorthalidone(R)]
[1]
  Class(High: HIA value ≥0.7; Low: HIA value < 0.7): Low (key: High: HIA value ≥0.7; Low: HIA value < 0.7)
[2]
  HIA(Human Intestinal Absorption): 0.65

## NS(=O)(=O)c1cc([C@@]2(O)NC(=O)c3ccccc32)ccc1Cl [Chlorthalidone(S)]
[1]
  Class(High: HIA value ≥0.7; Low: HIA value < 0.7): Low (key: High: HIA value ≥0.7; Low: HIA value < 0.7)
[2]
  HIA(Human Intestinal Absorption): 0.65

## CCCNC(=O)NS(=O)(=O)c1ccc(Cl)cc1 [Chorpropamide]
[1]
  Class(High: HIA value ≥0.7; Low: HIA value < 0.7): High (key: High: HIA value ≥0.7; Low: HIA value < 0.7)
[2]
  HIA(Human Intestinal Absorption): 0.95

## CC(C)(Oc1ccc([C@H]2CC2(Cl)Cl)cc1)C(=O)O [Ciprofibrate(R)]
[1]
  Class(High: HIA value ≥0.7; Low: HIA value < 0.7): High (key: High: HIA value ≥0.7; Low: HIA value < 0.7)
[2]
  HIA(Human Intestinal Absorption): 0.99

## CC(C)(Oc1ccc([C@@H]2CC2(Cl)Cl)cc1)C(=O)O [Ciprofibrate(S)]
[1]
  Class(High: HIA value ≥0.7; Low: HIA value < 0.7): High (key: High: HIA value ≥0.7; Low: HIA value < 0.7)
[2]
  HIA(Human Intestinal Absorption): 0.99

## CN(C)CCC[C@]1(c2ccc(F)cc2)OCc2cc(C#N)ccc21 [Citalopram(R)]
[1]
  Class(High: HIA value ≥0.7; Low: HIA value < 0.7): High (key: High: HIA value ≥0.7; Low: HIA value < 0.7)
[2]
  HIA(Human Intestinal Absorption): 1

## CN1C(=O)CC(=O)N(c2ccccc2)c2cc(Cl)ccc21 [Clobazam]
[1]
  Class(High: HIA value ≥0.7; Low: HIA value < 0.7): High (key: High: HIA value ≥0.7; Low: HIA value < 0.7)
[2]
  HIA(Human Intestinal Absorption): 0.87

## Cc1ncsc1CCCl [Clomethiazole]
[1]
  Class(High: HIA value ≥0.7; Low: HIA value < 0.7): High (key: High: HIA value ≥0.7; Low: HIA value < 0.7)
[2]
  HIA(Human Intestinal Absorption): 0.95

## O=C1CN=C(c2ccccc2Cl)c2cc([N+](=O)[O-])ccc2N1 [Clonazepam]
[1]
  Class(High: HIA value ≥0.7; Low: HIA value < 0.7): High (key: High: HIA value ≥0.7; Low: HIA value < 0.7)
[2]
  HIA(Human Intestinal Absorption): 0.8

## COC(=O)[C@H](c1ccccc1Cl)N1CCc2sccc2C1 [Clopidogrel(S)]
[1]
  Class(High: HIA value ≥0.7; Low: HIA value < 0.7): Low (key: High: HIA value ≥0.7; Low: HIA value < 0.7)
[2]
  HIA(Human Intestinal Absorption): 0.5

## COc1ccc2c3c1O[C@H]1[C@@H](O)C=C[C@H]4[C@@H](C2)N(C)CC[C@@]341 [Codeine]
[1]
  Class(High: HIA value ≥0.7; Low: HIA value < 0.7): High (key: High: HIA value ≥0.7; Low: HIA value < 0.7)
[2]
  HIA(Human Intestinal Absorption): 0.93

## CN1C(=O)CC[C@H]1c1cccnc1 [Cotinine(S)]
[1]
  Class(High: HIA value ≥0.7; Low: HIA value < 0.7): High (key: High: HIA value ≥0.7; Low: HIA value < 0.7)
[2]
  HIA(Human Intestinal Absorption): 0.97

## NS(=O)(=O)c1cc2c(cc1Cl)N[C@@H](CC1CCCC1)NS2(=O)=O [Cyclopenthiazide(R)]
[1]
  Class(High: HIA value ≥0.7; Low: HIA value < 0.7): High (key: High: HIA value ≥0.7; Low: HIA value < 0.7)
[2]
  HIA(Human Intestinal Absorption): 1

## NS(=O)(=O)c1cc2c(cc1Cl)N[C@H](CC1CCCC1)NS2(=O)=O [Cyclopenthiazide(S)]
[1]
  Class(High: HIA value ≥0.7; Low: HIA value < 0.7): High (key: High: HIA value ≥0.7; Low: HIA value < 0.7)
[2]
  HIA(Human Intestinal Absorption): 1

## COc1cccc2c1C(=O)c1c(O)c3c(c(O)c1C2=O)C[C@@](O)(C(C)=O)C[C@@H]3O[C@H]1C[C@H](N)[C@H](O)[C@H](C)O1 [Daunorubicin]
[1]
  Class(High: HIA value ≥0.7; Low: HIA value < 0.7): Low (key: High: HIA value ≥0.7; Low: HIA value < 0.7)
[2]
  HIA(Human Intestinal Absorption): 0.1

## CCCC(CCC)CCC[C@@H]1COCCN1CCO [Delmopinol(R)]
[1]
  Class(High: HIA value ≥0.7; Low: HIA value < 0.7): High (key: High: HIA value ≥0.7; Low: HIA value < 0.7)
[2]
  HIA(Human Intestinal Absorption): 0.95

## CCCC(CCC)CCC[C@H]1COCCN1CCO [Delmopinol(S)]
[1]
  Class(High: HIA value ≥0.7; Low: HIA value < 0.7): High (key: High: HIA value ≥0.7; Low: HIA value < 0.7)
[2]
  HIA(Human Intestinal Absorption): 0.95

## C[C@H](CN1CCOCC1)C(C(=O)N1CCCC1)(c1ccccc1)c1ccccc1 [Dextromoramide]
[1]
  Class(High: HIA value ≥0.7; Low: HIA value < 0.7): High (key: High: HIA value ≥0.7; Low: HIA value < 0.7)
[2]
  HIA(Human Intestinal Absorption): 1

## CC(=O)Oc1ccc2c3c1O[C@H]1[C@@H](OC(C)=O)C=C[C@H]4[C@@H](C2)N(C)CC[C@@]341 [Diacetylmorphine]
[1]
  Class(High: HIA value ≥0.7; Low: HIA value < 0.7): High (key: High: HIA value ≥0.7; Low: HIA value < 0.7)
[2]
  HIA(Human Intestinal Absorption): 1

## CCN(CC)[C@H](C)C(=O)c1ccccc1 [Diethylpropion(R)]
[1]
  Class(High: HIA value ≥0.7; Low: HIA value < 0.7): High (key: High: HIA value ≥0.7; Low: HIA value < 0.7)
[2]
  HIA(Human Intestinal Absorption): 0.95

## CCN(CC)[C@@H](C)C(=O)c1ccccc1 [Diethylpropion(S)]
[1]
  Class(High: HIA value ≥0.7; Low: HIA value < 0.7): High (key: High: HIA value ≥0.7; Low: HIA value < 0.7)
[2]
  HIA(Human Intestinal Absorption): 0.95

## COc1ccc2c3c1O[C@H]1[C@@H](O)CC[C@H]4[C@@H](C2)N(C)CC[C@@]341 [Dihydrocodeine]
[1]
  Class(High: HIA value ≥0.7; Low: HIA value < 0.7): High (key: High: HIA value ≥0.7; Low: HIA value < 0.7)
[2]
  HIA(Human Intestinal Absorption): 0.88

## COc1cc2nc(N3CCN(C(=O)[C@H]4COc5ccccc5O4)CC3)nc(N)c2cc1OC [Doxazosin(R)]
[1]
  Class(High: HIA value ≥0.7; Low: HIA value < 0.7): High (key: High: HIA value ≥0.7; Low: HIA value < 0.7)
[2]
  HIA(Human Intestinal Absorption): 1

## COc1cc2nc(N3CCN(C(=O)[C@@H]4COc5ccccc5O4)CC3)nc(N)c2cc1OC [Doxazosin(S)]
[1]
  Class(High: HIA value ≥0.7; Low: HIA value < 0.7): High (key: High: HIA value ≥0.7; Low: HIA value < 0.7)
[2]
  HIA(Human Intestinal Absorption): 1

## O=C(O)CN(CCN(CC(=O)O)CC(=O)O)CC(=O)O [Edetic_acid]
[1]
  Class(High: HIA value ≥0.7; Low: HIA value < 0.7): Low (key: High: HIA value ≥0.7; Low: HIA value < 0.7)
[2]
  HIA(Human Intestinal Absorption): 0.05

## NCCC[C@@](N)(C(=O)O)C(F)F [Eflornithine(R)]
[1]
  Class(High: HIA value ≥0.7; Low: HIA value < 0.7): Low (key: High: HIA value ≥0.7; Low: HIA value < 0.7)
[2]
  HIA(Human Intestinal Absorption): 0.55

## NCCC[C@](N)(C(=O)O)C(F)F [Eflornithine(S)]
[1]
  Class(High: HIA value ≥0.7; Low: HIA value < 0.7): Low (key: High: HIA value ≥0.7; Low: HIA value < 0.7)
[2]
  HIA(Human Intestinal Absorption): 0.55

## C[C@H](N[C@@H](CCc1ccccc1)C(=O)O)C(=O)N1CCC[C@H]1C(=O)O [Enalaprilat]
[1]
  Class(High: HIA value ≥0.7; Low: HIA value < 0.7): Low (key: High: HIA value ≥0.7; Low: HIA value < 0.7)
[2]
  HIA(Human Intestinal Absorption): 0.25

## CN1C[C@H](C(=O)N[C@]2(C)O[C@@]3(O)[C@@H]4CCCN4C(=O)[C@H](Cc4ccccc4)N3C2=O)C=C2c3cccc4[nH]cc(c34)C[C@H]21 [Ergotamine]
[1]
  Class(High: HIA value ≥0.7; Low: HIA value < 0.7): High (key: High: HIA value ≥0.7; Low: HIA value < 0.7)
[2]
  HIA(Human Intestinal Absorption): 1

## C[C@]12CC[C@@H]3c4ccc(OC(=O)N(CCCl)CCCl)cc4CC[C@H]3[C@@H]1CC[C@@H]2O [Estramustine]
[1]
  Class(High: HIA value ≥0.7; Low: HIA value < 0.7): High (key: High: HIA value ≥0.7; Low: HIA value < 0.7)
[2]
  HIA(Human Intestinal Absorption): 0.75

## CCO [Ethyl_alcohol]
[1]
  Class(High: HIA value ≥0.7; Low: HIA value < 0.7): High (key: High: HIA value ≥0.7; Low: HIA value < 0.7)
[2]
  HIA(Human Intestinal Absorption): 1

## CCN[C@H](C)Cc1cccc(C(F)(F)F)c1 [Fenfluramine(R)]
[1]
  Class(High: HIA value ≥0.7; Low: HIA value < 0.7): High (key: High: HIA value ≥0.7; Low: HIA value < 0.7)
[2]
  HIA(Human Intestinal Absorption): 0.95

## CCN[C@@H](C)Cc1cccc(C(F)(F)F)c1 [Fenfluramine(S)]
[1]
  Class(High: HIA value ≥0.7; Low: HIA value < 0.7): High (key: High: HIA value ≥0.7; Low: HIA value < 0.7)
[2]
  HIA(Human Intestinal Absorption): 0.95

## C[C@@H](C(=O)O)c1cccc(Oc2ccccc2)c1 [Fenoprofen(R)]
[1]
  Class(High: HIA value ≥0.7; Low: HIA value < 0.7): High (key: High: HIA value ≥0.7; Low: HIA value < 0.7)
[2]
  HIA(Human Intestinal Absorption): 0.85

## C[C@H](C(=O)O)c1cccc(Oc2ccccc2)c1 [Fenoprofen(S)]
[1]
  Class(High: HIA value ≥0.7; Low: HIA value < 0.7): High (key: High: HIA value ≥0.7; Low: HIA value < 0.7)
[2]
  HIA(Human Intestinal Absorption): 0.85

## CC(Cc1ccc(O)cc1)NCC(O)c1cc(O)cc(O)c1 (stereo not drawn) [Fenoterol]
[1]
  Class(High: HIA value ≥0.7; Low: HIA value < 0.7): Low (key: High: HIA value ≥0.7; Low: HIA value < 0.7)
[2]
  HIA(Human Intestinal Absorption): 0.6

## O=C(NC[C@H]1CCCCN1)c1cc(OCC(F)(F)F)ccc1OCC(F)(F)F [Flecainide(R)]
[1]
  Class(High: HIA value ≥0.7; Low: HIA value < 0.7): High (key: High: HIA value ≥0.7; Low: HIA value < 0.7)
[2]
  HIA(Human Intestinal Absorption): 0.81

## O=C(NC[C@@H]1CCCCN1)c1cc(OCC(F)(F)F)ccc1OCC(F)(F)F [Flecainide(S)]
[1]
  Class(High: HIA value ≥0.7; Low: HIA value < 0.7): High (key: High: HIA value ≥0.7; Low: HIA value < 0.7)
[2]
  HIA(Human Intestinal Absorption): 0.81

## OCCN1CCN(CC/C=C2/c3ccccc3Sc3ccc(C(F)(F)F)cc32)CC1 [Flupentixol]
[1]
  Class(High: HIA value ≥0.7; Low: HIA value < 0.7): High (key: High: HIA value ≥0.7; Low: HIA value < 0.7)
[2]
  HIA(Human Intestinal Absorption): 1

## CCN(CC)CCN1C(=O)CN=C(c2ccccc2F)c2cc(Cl)ccc21 [Flurazepam]
[1]
  Class(High: HIA value ≥0.7; Low: HIA value < 0.7): High (key: High: HIA value ≥0.7; Low: HIA value < 0.7)
[2]
  HIA(Human Intestinal Absorption): 1
